# Experimental data published in patent publication US20230278972A1, “SUBSTITUTED HALOALKYL SULFONANILIDE HERBICIDES” (FMC Corporation, priority 2020, published 2023).
# Tests used:
# Type in all cases: in vivo
# [1] = test system: ragweed (common ragweed, Ambrosia artemisiifolia); test: Test A preemergence, ragweed; conditions: Preemergence; for Plant response rating, Ragweed: 0 to 100 scale (0 no effect, 100 complete control)
# Procedure, shortened: (§1)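 Formulated with a surfactant in a non-phytotoxic solvent, compounds are applied to loam–sand pots, either to bare soil immediately after seeding (preemergence) or to seedlings of 2 to 10 cm bearing one to two leaves (postemergence).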
# [2] = test system: blackgrass (Alopecurus myosuroides); test: Test A postemergence, blackgrass; conditions: Postemergence, 0 to 100 scale (0 no effect, 100 complete control)
# Procedure, shortened: as §1
# [3] = test system: Foxtail, Giant (giant foxtail, Setaria faberi); test: Test A postemergence, Foxtail, Giant; conditions: Postemergence, 0 to 100 scale (0 no effect, 100 complete control)
# Procedure, shortened: as §1
# [4] = test system: ragweed (common ragweed, Ambrosia artemisiifolia); test: Test A postemergence, ragweed; conditions: Postemergence, 0 to 100 scale (0 no effect, 100 complete control)
# Procedure, shortened: as §1
# kochia (Bassia scoparia) [5] = test: Test A postemergence, kochia; conditions: Postemergence, 0 to 100 scale (0 no effect, 100 complete control)
# Procedure, shortened: as §1
# kochia (Bassia scoparia) [6] = test: Test A preemergence, kochia; conditions: Preemergence; for Plant response rating, Kochia: 0 to 100 scale (0 no effect, 100 complete control)
# Procedure, shortened: as §1
# [7] = test system: Ryegrass, Italian (Italian ryegrass, Lolium multiflorum); test: Test A preemergence, Ryegrass, Italian; conditions: Preemergence; for Plant response rating, Ryegrass, Italian: 0 to 100 scale (0 no effect, 100 complete control)
# Procedure, shortened: as §1
# [8] = test system: Foxtail, Giant (giant foxtail, Setaria faberi); test: Test A preemergence, Foxtail, Giant; conditions: Preemergence; for Plant response rating, Foxtail, Giant: 0 to 100 scale (0 no effect, 100 complete control)
# Procedure, shortened: as §1
# [9] = test system: pigweed (Amaranthus retroflexus); test: Test A postemergence, pigweed; conditions: Postemergence, 0 to 100 scale (0 no effect, 100 complete control)
# Procedure, shortened: as §1
# [10] = test system: wheat (Triticum aestivum); test: Test A postemergence, wheat; conditions: Postemergence, 0 to 100 scale (0 no effect, 100 complete control)
# Procedure, shortened: (§2)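 Postemergence ratings come from foliar sprays onto one- to two-leaf plants of 2 to 10 cm grown in loam/sand; preemergence ratings come from a directed spray onto the soil of newly seeded pots. Formulation was a surfactant-containing non-phytotoxic solvent blend.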
# corn (Zea mays) = test: Test A postemergence, corn; conditions: Postemergence, 0 to 100 scale (0 no effect, 100 complete control)
# Procedure, shortened: as §1
# [11] = test system: galium (catchweed bedstraw, Galium aparine); test: Test A postemergence, galium; conditions: Postemergence, 0 to 100 scale (0 no effect, 100 complete control)
# Procedure, shortened: as §2
# [12] = test system: pigweed (Amaranthus retroflexus); test: Test A preemergence, pigweed; conditions: for Plant response rating, Pigweed: 0 to 100 scale (0 no effect, 100 complete control)
# Procedure, shortened: as §2
# [13] = test system: Ryegrass, Italian (Italian ryegrass, Lolium multiflorum); test: Test A postemergence, Ryegrass, Italian; conditions: Postemergence, 0 to 100 scale (0 no effect, 100 complete control)
# Procedure, shortened: as §1
# [14] = test system: barnyardgrass (Echinochloa crus-galli); test: Test A postemergence, barnyardgrass; conditions: Postemergence, 0 to 100 scale (0 no effect, 100 complete control)
# Procedure, shortened: as §2
# [15] = test system: barnyardgrass (Echinochloa crus-galli); test: Test A preemergence, barnyardgrass; conditions: Preemergence; for Plant response rating, Barnyardgrass: 0 to 100 scale (0 no effect, 100 complete control)
# Procedure, shortened: as §1
# [16] = 1000 g ai/ha, visual injury, approx. 10 days
# [17] = 125 g ai/ha, visual injury on 0 to 100 scale (0 no effect, 100 complete control), approximately 10 days
# [18] = 125 g ai/ha, visual injury approx. 10 days
# [19] = 500 g ai/ha, visual injury, approx. 10 days
# [20] = 125 g ai/ha, visual injury, approx. 10 days
# [21] = 500 g ai/ha, visual injury vs untreated controls after approx. 10 days
compound,measurement,setting,value
COC(=O)C1CCN(C(=O)c2cc(NS(=O)(=O)C(F)(F)F)c(C)cc2C)CC1 [Compound 50],"Plant response rating, Ragweed",[1]; 1000 g ai/ha,80
same,"Plant response rating, Blackgrass",[2]; [16],20
same,"Plant response rating, Foxtail, Giant",[3]; [16],90
same,"Plant response rating, Ragweed",[4]; [16],50
same,"Plant response rating, Kochia",kochia (Bassia scoparia) [5]; [16],60
same,"Plant response rating, Kochia",kochia (Bassia scoparia) [6]; 1000 g ai/ha,90
same,"Plant response rating, Ryegrass, Italian",[7]; 1000 g ai/ha,70
same,"Plant response rating, Foxtail, Giant",[8]; 1000 g ai/ha,100
same,"Plant response rating, Pigweed",[9]; [16],90
same,"Plant response rating, Wheat",[10]; [16],50
same,"Plant response rating, Corn",corn (Zea mays); [16],10
same,"Plant response rating, Galium",[11]; [16],90
same,"Plant response rating, Pigweed",[12]; 1000 g ai/ha,100
same,"Plant response rating, Ryegrass, Italian",[13]; [16],90
same,"Plant response rating, Barnyardgrass",[14]; [16],60
same,"Plant response rating, Barnyardgrass",[15]; 1000 g ai/ha,100
COc1cc(Cl)c(NS(=O)(=O)C(F)(F)F)cc1C(=O)N1CCOCC1 [Compound 258],"Plant response rating, Ragweed",[1]; 1000 g ai/ha,90
same,"Plant response rating, Blackgrass",[2]; [16],50
same,"Plant response rating, Foxtail, Giant",[3]; [16],50
same,"Plant response rating, Ragweed",[4]; [16],80
same,"Plant response rating, Kochia",kochia (Bassia scoparia) [5]; [16],90
same,"Plant response rating, Kochia",kochia (Bassia scoparia) [6]; 1000 g ai/ha,90
same,"Plant response rating, Ryegrass, Italian",[7]; 1000 g ai/ha,70
same,"Plant response rating, Foxtail, Giant",[8]; 1000 g ai/ha,90
same,"Plant response rating, Pigweed",[9]; [16],80
same,"Plant response rating, Wheat",[10]; [16],30
same,"Plant response rating, Corn",corn (Zea mays); [16],10
same,"Plant response rating, Galium",[11]; [16],80
same,"Plant response rating, Pigweed",[12]; 1000 g ai/ha,100
same,"Plant response rating, Ryegrass, Italian",[13]; [16],70
same,"Plant response rating, Barnyardgrass",[14]; [16],70
same,"Plant response rating, Barnyardgrass",[15]; 1000 g ai/ha,80
Cc1cc(C)c(C(=O)N2CCC(Cl)CC2)cc1NS(=O)(=O)C(F)(F)F [Compound 242],"Plant response rating, Ragweed",[1]; 1000 g ai/ha,90
same,"Plant response rating, Blackgrass",[2]; [16],40
same,"Plant response rating, Foxtail, Giant",[3]; [16],90
same,"Plant response rating, Ragweed",[4]; [16],90
same,"Plant response rating, Kochia",kochia (Bassia scoparia) [5]; [16],80
same,"Plant response rating, Kochia",kochia (Bassia scoparia) [6]; 1000 g ai/ha,90
same,"Plant response rating, Ryegrass, Italian",[7]; 1000 g ai/ha,100
same,"Plant response rating, Foxtail, Giant",[8]; 1000 g ai/ha,100
same,"Plant response rating, Pigweed",[9]; [16],90
same,"Plant response rating, Wheat",[10]; [16],60
same,"Plant response rating, Corn",corn (Zea mays); [16],70
same,"Plant response rating, Galium",[11]; [16],90
same,"Plant response rating, Pigweed",[12]; 1000 g ai/ha,100
same,"Plant response rating, Ryegrass, Italian",[13]; [16],0
same,"Plant response rating, Barnyardgrass",[14]; [16],90
same,"Plant response rating, Barnyardgrass",[15]; 1000 g ai/ha,100
COc1cnn(-c2cc(N(S(=O)(=O)C(F)(F)F)S(=O)(=O)C(F)(F)F)c(C)cc2C)c(=O)c1OC [Compound 40],Ragweed plant response rating,[1]; [17],50
same,"Plant response rating, Ragweed",[1]; 500 g ai/ha,50
same,"Plant response rating, Blackgrass",[2]; [18],10
same,"Plant response rating, Blackgrass",[2]; [19],10
same,"Plant response rating, Foxtail, Giant",[3]; [18],0
same,"Plant response rating, Foxtail, Giant",[3]; [19],10
same,"Plant response rating, Ragweed",[4]; [18],40
same,"Plant response rating, Ragweed",[4]; [19],40
same,"Plant response rating, Kochia",kochia (Bassia scoparia) [5]; [18],10
same,"Plant response rating, Kochia",kochia (Bassia scoparia) [5]; [19],20
same,Kochia plant response rating,kochia (Bassia scoparia) [6]; [17],80
same,"Plant response rating, Kochia",kochia (Bassia scoparia) [6]; 500 g ai/ha,80
same,"Ryegrass, Italian plant response rating",[7]; [17],30
same,"Plant response rating, Ryegrass, Italian",[7]; 500 g ai/ha,80
same,"Foxtail, Giant plant response rating",[8]; [17],90
same,"Plant response rating, Foxtail, Giant",[8]; 500 g ai/ha,100
same,"Plant response rating, Pigweed",[9]; [18],0
same,"Plant response rating, Pigweed",[9]; [19],30
same,"Plant response rating, Wheat",[10]; [18],0
same,"Plant response rating, Wheat",[10]; [19],40
same,"Plant response rating, Corn",corn (Zea mays); [18],0
same,"Plant response rating, Corn",corn (Zea mays); [19],0
same,"Plant response rating, Galium",[11]; [18],20
same,"Plant response rating, Galium",[11]; [19],70
same,Pigweed plant response rating,[12]; [17],100
same,"Plant response rating, Pigweed",[12]; 500 g ai/ha,100
same,"Plant response rating, Ryegrass, Italian",[13]; [18],30
same,"Plant response rating, Ryegrass, Italian",[13]; [19],60
same,"Plant response rating, Barnyardgrass",[14]; [18],10
same,"Plant response rating, Barnyardgrass",[14]; [19],40
same,Barnyardgrass plant response rating,[15]; [17],90
same,"Plant response rating, Barnyardgrass",[15]; 500 g ai/ha,90
Cc1cc(C)c(C(=O)N2CCC3(CCCC3)CC2)cc1NS(=O)(=O)C(F)(F)F [Compound 223],"Plant response rating, Ragweed",[1]; [20],0
same,"Plant response rating, Ragweed",[1]; 500 g ai/ha,50
same,"Plant response rating, Blackgrass",[2]; 125 g ai/ha,20
same,Blackgrass plant response rating,[2]; [21],0
same,"Plant response rating, Foxtail, Giant",[3]; 125 g ai/ha,0
same,"Foxtail, Giant plant response rating",[3]; [21],0
same,"Plant response rating, Ragweed",[4]; 125 g ai/ha,0
same,Ragweed plant response rating,[4]; [21],20
same,"Plant response rating, Kochia",kochia (Bassia scoparia) [5]; 125 g ai/ha,0
same,Kochia plant response rating,kochia (Bassia scoparia) [5]; [21],0
same,"Plant response rating, Kochia",kochia (Bassia scoparia) [6]; [20],0
same,"Plant response rating, Kochia",kochia (Bassia scoparia) [6]; 500 g ai/ha,20
same,"Plant response rating, Ryegrass, Italian",[7]; [20],30
same,"Plant response rating, Ryegrass, Italian",[7]; 500 g ai/ha,80
same,"Plant response rating, Foxtail, Giant",[8]; [20],60
same,"Plant response rating, Foxtail, Giant",[8]; 500 g ai/ha,100
same,"Plant response rating, Pigweed",[9]; 125 g ai/ha,40
same,Pigweed plant response rating,[9]; [21],30
same,"Plant response rating, Wheat",[10]; 125 g ai/ha,0
same,Wheat plant response rating,[10]; [21],0
same,"Plant response rating, Corn",corn (Zea mays); 125 g ai/ha,0
same,Corn plant response rating,corn (Zea mays); [21],0
same,"Plant response rating, Galium",[11]; 125 g ai/ha,40
same,Galium plant response rating,[11]; [21],40
same,"Plant response rating, Pigweed",[12]; [20],10
same,"Plant response rating, Pigweed",[12]; 500 g ai/ha,90
same,"Plant response rating, Ryegrass, Italian",[13]; 125 g ai/ha,0
same,"Ryegrass, Italian plant response rating",[13]; [21],0
same,"Plant response rating, Barnyardgrass",[14]; 125 g ai/ha,10
same,Barnyardgrass plant response rating,[14]; [21],20
same,"Plant response rating, Barnyardgrass",[15]; [20],30
same,"Plant response rating, Barnyardgrass",[15]; 500 g ai/ha,50
